Structures are written as SMILES. In brackets after ≈: the same amount, converted by molar mass. Residues, ends and D or L forms follow the SMILES beside them. Some results are limits rather than exact numbers.

Data set [1] concerns MRSA 103. The data set can be described thus: microbe, parasite or virus in culture. The format is cell-based, Staphylococcus aureus. The source says:
(§1) The test strains (Gram-negative: E. coli ATCC 25922, E. coli k88, E. coli k99, E. coli 987, P. aeruginosa ATCC PAO1, Salmonella pullorum ATCC 7731, S. pullorum ATCC 7913, and S. typhimurium ATCC 14028; Gram-positive: S. aureus ATCC 29213, S. aureus ATCC 25923, S. epidermidis ATCC 12228, MRSA ATCC 43300, MRSA 544, MRSA 103, L. rhamnosus ATCC 8014, and L. rhamnosus 1.9021) were maintained at the School of Medicine in the Shenzhen Campus of Sun Yat-sen University. Mouse RBCs were extracted from a specific pathogen-free (SPF) grade mouse.
(§2) The peptides' antimicrobial effectiveness was evaluated using a method derived from a previous publication ([59]) and modified for use in this study. Single colonies were seeded and cultured in brain–heart infusion (BHI) medium at 37°C until log-phase growth after adjustment to OD600 = 0.4, which was followed by a 1000-fold dilution with phosphate-buffered saline (PBS). Then, in sterile 96-well plates, twofold serial dilutions of the peptides were added, followed by 50-µL aliquots of the bacterial cell solution. The ultimate concentrations of the antibacterial agents were 0.125–64 μM. Moreover, bacteria and PBS were added to the TSB as positive and negative controls, respectively. The plates were placed in an incubator set at 37°C for 18 hours. The trial was conducted a minimum of three times in sets of three. Successful completion of the experiment was confirmed by observing the turbidity of the positive control and clarity of the negative control culture medium. The MIC was defined as the lowest peptide concentration required to inhibit bacterial growth.

Data set [2] deals with MRSA 544. As to the kind of experiment: microbe, parasite or virus in culture. The format is cell-based, Staphylococcus aureus.
Source text: as §1, §2

Data set [3] deals with MRSA 103. The data set can be described thus: microbe, parasite or virus in culture. The format is cell-based, Staphylococcus aureus. As for the experimental part:
as §2
(§3) For MBC analysis, viable cells from all wells with no visible bacterial growth were determined on the BHI agar plates. After 24 hours of cultivation at 37°C, the MBC endpoint was defined as the minimum concentration at which 99.9% of the bacterial population was killed.
The source holds these as a separate data set.

Data set [4] deals with MRSA 544. The data set can be described thus: microbe, parasite or virus in culture. The format is cell-based, Staphylococcus aureus. As for the experimental part:
as §2, §3
This is another data set of the same source.

Data set [5] relates to clinically isolated MRSA. As to the kind of experiment: microbe, parasite or virus in culture.
Source text: as §1
as §2, with “Successful completion of the experiment was confirmed by observing the turbidity of the positive control and clarity of the negative control culture medium.” left out

The subject of data set [6] is MRSA 544. The data set can be described thus: Time-kill kinetics. In kind it is cell-based, Staphylococcus aureus. As to conditions: 2 × MIC, 4 × MIC and 8 × MIC, 0–7 hours.
Description: MRSA 544 was cultured to the logarithmic phase (OD600 = 0.4) and diluted 1000-fold with PBS. […] At various periods (0, 5, 10, 15, 20, 25, 30, and 60 minutes), microbial suspensions were serially diluted (10-, 100-, and 1000-fold) with PBS, and 10 µL of the diluted suspension was plated on tryptic soy agar (TSA) medium. Single colonies of microorganisms were counted after 12-hour incubation at 37°C. The processing steps of vancomycin were the same as those of AMP W5, but with different concentrations (2 × MIC, 4 × MIC, and 8 × MIC) and periods (0, 1, 2, 3, 4, 5, 6, and 7 hours). Average values were calculated and plotted after six repetitions.
In data set [7] the test system is clinically isolated MRSA. In kind it is cell-based, Staphylococcus aureus. The settings on record: 18 h. As for the experimental part: as §2, §3
A further data set has as its system standard MRSA strains. In kind it is cell-based, Staphylococcus aureus. The settings on record: 18 h.
Source text: as §1
as §2, with “Successful completion of the experiment was confirmed by observing the turbidity of the positive control and clarity of the negative control culture medium. The MIC was defined as the lowest peptide concentration required to inhibit bacterial growth.” left out

A further data set relates to BALB/c mice. As to the kind of experiment: In vivo safety assessment. On the set-up: species or system mouse. As to conditions: 10 mg/kg intravenously, five days after injection. As to the method: The in vivo safety assessment and antibacterial activity analysis of the peptides were performed using a murine skin infection model wherein 25 SPF-grade 6- to 8-week-old female mice (BALB/c) were randomly divided into five cages (n = 5 in each cage). The animals were housed individually in ventilated cages (IVC), at a temperature of 20°C–24°C, humidity of 50%–60%, and a 12-hour day–night cycle.
Two groups of five mice were randomly divided and intravenously injected with 100 µL PBS or a 10 mg/kg solution of AMP W5 diluted with PBS. Five days after injection, all animals were euthanized. The weight of each mouse was determined from day 0 to day 5. Blood samples were collected to analyze hepatorenal damage, and an automatic biochemical analyzer was used to measure indicators, including ALT, AST, ALP, BUN, CREA, and LDH. The livers and kidneys of the mice were stained with hematoxylin/eosin (HE) for histological analysis.

Setting [8] is: clinically isolated MRSA strains, 37°C, 18 hours.
[9] abbreviates: Staphylococcus aureus, MRSA, 18 h.
Where [10] appears, read: Staphylococcus aureus, MRSA, 24 h.

Consider `CC[C@H](C)[C@H](NC(=O)CN)C(=O)NCC(=O)N[C@@H](C)C(=O)N[C@H](C(=O)N[C@@H](CC(C)C)C(=O)N[C@@H](CCCCN)C(=O)N[C@H](C(=O)N[C@@H](CC(C)C)C(=O)N[C@H](C(=O)N[C@H](C(=O)NCC(=O)N[C@@H](CC(C)C)C(=O)N1CCC[C@H]1C(=O)N[C@@H](C)C(=O)N[C@@H](CC(C)C)C(=O)N[C@H](C(=O)N[C@@H](CO)C(=O)N[C@@H](Cc1c[nH]c2ccccc12)C(=O)N[C@H](C(=O)N[C@@H](CCCCN)C(=O)N[C@@H](CCCNC(=N)N)C(=O)N[C@@H](CCCCN)C(=O)N[C@@H](CCCNC(=N)N)C(=O)N[C@@H](CCC(N)=O)C(=O)N[C@@H](CCC(N)=O)C(N)=O)[C@@H](C)CC)[C@@H](C)CC)[C@@H](C)O)[C@@H](C)O)C(C)C)C(C)C` [Melittin, reference compound], for which the MIC with MRSA 103 [1] (MRSA 103, twofold serial dilutions 0.125–64 μM, 96-well plates, 37°C, 18 hours, minimum of three times in sets of three) amounted to 4 µM (≈ 11.4 µg/mL); in the data set on MRSA 544 [2] (MRSA 544, twofold serial dilutions 0.125–64 μM, 96-well plates, 37°C, 18 hours, minimum of three times in sets of three), 4 µM (≈ 11.4 µg/mL); in the data set with clinically isolated MRSA [5] (setting [8]) it was 4 µM (≈ 11.4 µg/mL). Further, the “MBC as multiple of MIC” value against MRSA 103 [3] (MRSA 103) worked out at 2 × MIC. Further, the MBC in the data set on MRSA 103 [3] (MRSA 103, BHI agar plates, 24 hours at 37°C, minimum concentration at which 99.9% killed) is 8 µM (≈ 22.8 µg/mL); in the data set on MRSA 544 [4] (MRSA 544, BHI agar plates, 24 hours at 37°C, minimum concentration at which 99.9% killed), 4 µM (≈ 11.4 µg/mL).
In the case of `CN[C@H](CC(C)C)C(=O)N[C@H]1C(=O)N[C@@H](CC(N)=O)C(=O)N[C@H]2C(=O)N[C@H]3C(=O)N[C@H](C(=O)N[C@H](C(=O)O)c4cc(O)cc(O)c4-c4cc3ccc4O)[C@H](O)c3ccc(c(Cl)c3)Oc3cc2cc(c3O[C@@H]2O[C@H](CO)[C@@H](O)[C@H](O)[C@H]2O[C@H]2C[C@](C)(N)[C@H](O)[C@H](C)O2)Oc2ccc(cc2Cl)[C@H]1O` [Vancomycin, reference compound], the MIC against MRSA 103 [1] (setting [9]), against MRSA 544 [2] (setting [9]) and in the data set with clinically isolated MRSA [5] (setting [9]) was 0.5 µM (≈ 0.725 µg/mL) each time. Further, the “MBC as multiple of MIC” value against MRSA 103 [3] (MRSA 103) and against MRSA 544 [4] (MRSA 544) was 8 × MIC each time. Besides, the MBC against MRSA 103 [3] (setting [10]) and with MRSA 544 [4] (setting [10]) was 4 µM (≈ 5.8 µg/mL) throughout. Also, in the data set with MRSA 544 [6], the “Bactericidal effect in time-kill assay” value is reported as “no signs of complete eradication even after 7 hours”.
In the case of `N=C(N)NCCC[C@H](NC(=O)CNC(=O)[C@H](CO)NC(=O)CNC(=O)[C@H](CCCNC(=N)N)NC(=O)[C@@H](N)Cc1c[nH]c2ccccc12)C(=O)N[C@@H](Cc1c[nH]c2ccccc12)C(N)=O` [W1] (H-WRGSGRW-NH2), the MIC with MRSA 103 [1] (103, 18 h) was above 64 µM; in the data set with MRSA 544 [2] (544, 18 h), above 64 µM. The MBC is above 64 µM in the data set on MRSA 103 [3] (103, 24 h) and above 64 µM in the data set on MRSA 544 [4] (544, 24 h).
As to `N=C(N)NCCC[C@H](NC(=O)CNC(=O)[C@H](CO)NC(=O)CNC(=O)[C@H](CCCNC(=N)N)NC(=O)[C@H](CCCNC(=N)N)NC(=O)[C@@H](N)Cc1c[nH]c2ccccc12)C(=O)N[C@@H](CCCNC(=N)N)C(=O)N[C@@H](Cc1c[nH]c2ccccc12)C(N)=O` [W2] (H-WRRGSGRRW-NH2), the MIC was above 64 µM with MRSA 103 [1] (103, 18 h) and above 64 µM in the data set with MRSA 544 [2] (544, 18 h). The MBC against MRSA 103 [3] (103, 24 h) is above 64 µM; against MRSA 544 [4] (544, 24 h), above 64 µM.
On to `N=C(N)NCCC[C@H](NC(=O)CNC(=O)[C@H](CO)NC(=O)CNC(=O)[C@H](CCCNC(=N)N)NC(=O)[C@H](CCCNC(=N)N)NC(=O)[C@H](CCCNC(=N)N)NC(=O)[C@@H](N)Cc1c[nH]c2ccccc12)C(=O)N[C@@H](CCCNC(=N)N)C(=O)N[C@@H](CCCNC(=N)N)C(=O)N[C@@H](Cc1c[nH]c2ccccc12)C(N)=O` [W3] (H-WRRRGSGRRRW-NH2), for which the MIC is above 64 µM in the data set with MRSA 103 [1] (103, 18 h) and above 64 µM in the data set on MRSA 544 [2] (544, 18 h). Further, the MBC in the data set on MRSA 103 [3] (103, 24 h) is above 64 µM; against MRSA 544 [4] (544, 24 h), above 64 µM.
Consider `N=C(N)NCCC[C@H](NC(=O)CNC(=O)[C@H](CO)NC(=O)CNC(=O)[C@H](CCCNC(=N)N)NC(=O)[C@H](CCCNC(=N)N)NC(=O)[C@H](CCCNC(=N)N)NC(=O)[C@H](Cc1c[nH]c2ccccc12)NC(=O)[C@@H](N)Cc1c[nH]c2ccccc12)C(=O)N[C@@H](CCCNC(=N)N)C(=O)N[C@@H](CCCNC(=N)N)C(=O)N[C@@H](Cc1c[nH]c2ccccc12)C(=O)N[C@@H](Cc1c[nH]c2ccccc12)C(N)=O` [W4] (H-WWRRRGSGRRRWW-NH2), for which the MIC against MRSA 103 [1] (103, 18 h) turned out to be 16 µM (≈ 30.4 µg/mL); in the data set with MRSA 544 [2] (544, 18 h), 16 µM (≈ 30.4 µg/mL). Further, the MBC in the data set on MRSA 103 [3] (103, 24 h) worked out at 32 µM (≈ 60.8 µg/mL); in the data set on MRSA 544 [4] (544, 24 h), 32 µM (≈ 60.8 µg/mL).
In the case of `N=C(N)NCCC[C@H](NC(=O)CNC(=O)[C@H](CO)NC(=O)CNC(=O)[C@H](CCCNC(=N)N)NC(=O)[C@H](CCCNC(=N)N)NC(=O)[C@H](CCCNC(=N)N)NC(=O)[C@H](Cc1c[nH]c2ccccc12)NC(=O)[C@H](Cc1c[nH]c2ccccc12)NC(=O)[C@@H](N)Cc1c[nH]c2ccccc12)C(=O)N[C@@H](CCCNC(=N)N)C(=O)N[C@@H](CCCNC(=N)N)C(=O)N[C@@H](Cc1c[nH]c2ccccc12)C(=O)N[C@@H](Cc1c[nH]c2ccccc12)C(=O)N[C@@H](Cc1c[nH]c2ccccc12)C(N)=O` [W5] (H-WWWRRRGSGRRRWWW-NH2), the MIC in the data set with MRSA 103 [1] (103, 18 h) was determined as 8 µM (≈ 18.2 µg/mL); in the data set with MRSA 544 [2] (544, 18 h), 8 µM (≈ 18.2 µg/mL); with clinically isolated MRSA [5] (setting [8]) it was 8 µM (≈ 18.2 µg/mL); with standard MRSA strains it was 2 µM (≈ 4.55 µg/mL). The MBC against MRSA 103 [3] (103, 24 h) came to 8 µM (≈ 18.2 µg/mL); in the data set on MRSA 544 [4] (544, 24 h) it was 8 µM (≈ 18.2 µg/mL); in the data set on clinically isolated MRSA [7] it was 8 µM (≈ 18.2 µg/mL). Also, the “HE staining of liver and kidney” value with BALB/c mice is listed as “no hepatotoxicity or nephrotoxicity”.

Values taken from publication PMC11537005, “Antimicrobial activity of novel symmetrical antimicrobial peptides centered on a hydrophilic motif against resistant clinical isolates: in vitro and in vivo analyses” (Microbiology Spectrum, 2024).
